Here are results for 19 compounds from ChEMBL document CHEMBL5321241, “Identification of new hit to lead magmas inhibitors as potential therapeutics for glioblastoma” (Bioorg Med Chem Lett, 2023).

The nature of series [1]: Anticancer activity against human D-54MG cells assessed as cell growth inhibition inhibition incubated for 3 days. The format is functional, cell-based. The note with it: D54MG, 72 h.
A short description of series [2]: Anticancer activity against patient-derived DB93 cells assessed as cell growth inhibition incubated for 3 days. The format is functional, cell-based. The note with it: Homo sapiens, DB93, 72 h.
A short description of series [3]: Anticancer activity against patient-derived DB70 cells assessed as cell growth inhibition inhibition incubated for 3 days. The note with it: Homo sapiens, DB70, 72 h. The format is functional, cell-based.
For the next series, the system named is U-251. In words: Anticancer activity against human U-251 cells assessed as cell growth inhibition inhibition incubated for 3 days. The format is functional, cell-based. The note with it: U-251, 72 h.
Series [4] is described as follows: Lipophilicity, logP of compound. The following applies: octanol/water. The series is classed as physicochemical.
Another series relates to LN-229. Nature of the series: Anticancer activity against human LN-229 cells assessed as cell growth inhibition inhibition incubated for 3 days. The note with it: LN-229, 72 h. The format is functional, cell-based.

Bounds are passed on as bounds.

Broadly, the IC50 is the midpoint of a concentration-inhibition curve. One may read the logP as a log measure of how a compound divides between an organic and an aqueous phase. For the compound `CCC1=C(C)/C(=C/c2ccc(C(=O)NC(=N)N)cc2)CCC1(C)C`, the IC50 amounted to 5.6 µM in series [1]; 2.09 µM in series [2]; 1.77 µM in series [3]; 5.06 µM with U-251; 6.54 µM in the series on LN-229. Moreover, in series [4] (read-out: logP), the log partition coefficient (logP) turned out to be 3.98.

As to `CCC1=C(C)/C(=C/c2ccc(-c3noc(-c4ccc(Cl)cc4)n3)cc2)CCC1(C)C`, the IC50 is over 100 µM in series [1] and 10 µM with U-251. The logP in series [4] (read-out: logP) was 8.12.

Regarding `CCC1=C(C)/C(=C/c2ccc(C(=O)Nc3nc4ccccc4[nH]3)cc2)CCC1(C)C`, the 50% inhibitory concentration (IC50) in the series on U-251 is 4.47 µM; with LN-229, over 75 µM. Further, the logP in series [4] (read-out: logP) was determined as 5.78.

`CCC1=C(C)/C(=C/c2ccc(/C(N)=N/O)cc2)CCC1(C)C`: the IC50 in series [1] amounted to 66.6 µM; with U-251 it was 56.8 µM. In addition, in series [4] (read-out: logP), the logP worked out at 4.53.

Regarding `CCC1=C(C)/C(=C/c2ccc(C#N)cc2)CCC1(C)C`, the half-maximal inhibitory concentration (IC50) was found to be 72.2 µM in series [1] and 83.8 µM in the series with U-251. The log partition coefficient (logP) in series [4] (read-out: logP) turned out to be 5.25.

In the case of `CCC1=C(C)/C(=C/c2ccc(C3=NOB(c4ccccc4)N3)cc2)CCC1(C)C`, the 50% inhibitory concentration (IC50) in series [1] came out at 47.4 µM; in series [2], 8.31 µM; in series [3], 13.3 µM; in the series with U-251, 26.8 µM; with LN-229, 60 µM. In series [4] (read-out: logP), the logP was found to be 6.5.

On to `CCC1=C(C)/C(=C/c2ccc(-c3noc(-c4ccncc4)n3)cc2)CCC1(C)C`, for which the half-inhibitory concentration (IC50) in the series on U-251 and with LN-229 was over 100 µM in each case. The lipophilicity (logP) in series [4] (read-out: logP) is 6.22.

Regarding `CCC1=C(C)/C(=C/c2ccc(-c3noc(-c4ccccc4OC(F)(F)F)n3)cc2)CCC1(C)C`, the concentration for half-maximal inhibition (IC50) came out at 65.6 µM in series [1] and 58.4 µM in the series on U-251. Besides, in series [4], the logP amounted to 9.09.

In the case of `CCC1=C(C)/C(=C/c2ccc(C(=O)Nc3ccc(Cl)cc3Cl)cc2)CCC1(C)C`, the log partition coefficient (logP) in series [4] (read-out: logP) stood at 7.14.

For the compound `CCC1=C(C)/C(=C/c2ccc(-c3noc(-c4cccnc4)n3)cc2)CCC1(C)C`, the IC50 stood at 37.8 µM with U-251 and 35.6 µM in the series on LN-229. Further, the logP in series [4] (read-out: logP) came out at 6.22.

As to `CCC1=C(C)/C(=C/c2ccc(C(=O)Nc3ccc(O)cc3)cc2)CCC1(C)C`, the 50% inhibitory concentration (IC50) (in series [1]; with U-251) was over 100 µM in each case. Further, the log partition coefficient (logP) in series [4] (read-out: logP) was 5.63.

With `CCC1=C(C)/C(=C/c2ccc(-c3noc(-c4ccc(Br)cc4)n3)cc2)CCC1(C)C`, the IC50 in series [1] is over 100 µM; in the series with U-251 it was 7 µM. For the same compound, in series [4] (read-out: logP), the logP was determined as 8.39.

As to `CCC1=C(C)/C(=C/c2ccc(C(=O)Nc3ccc4[nH]c(C(F)(F)F)nc4c3)cc2)CCC1(C)C`, the IC50 with U-251 and with LN-229 was over 100 µM each time. Moreover, in series [4] (read-out: logP), the lipophilicity (logP) amounted to 6.37.

`CCC1=C(C)/C(=C/c2ccc(C(=O)Nc3nccs3)cc2)CCC1(C)C`: the concentration for half-maximal inhibition (IC50) in the series with U-251 and in the series with LN-229 was over 100 µM in each case. The lipophilicity (logP) in series [4] (read-out: logP) amounted to 5.74.

For `CCC1=C(C)/C(=C/c2ccc(C(=O)Nc3ccc(C(F)(F)F)cc3)cc2)CCC1(C)C`, the IC50 was 3.81 µM in series [1]; over 50 µM in series [2]; over 50 µM in series [3]; 6.04 µM in the series on U-251; 5.93 µM with LN-229. Besides, the logP in series [4] (read-out: logP) was determined as 6.94.

For `CCC1=C(C)/C(=C/c2ccc(C(=O)Nc3nc4ccccc4s3)cc2)CCC1(C)C`, the IC50 in series [1] was determined as 6.64 µM; in series [2], 3.54 µM; in series [3], 6.67 µM; in the series with U-251, 19.3 µM; in the series with LN-229, 22.8 µM. Besides, the logP in series [4] (read-out: logP) was 7.22.

Take `CCC1=C(C)/C(=C/c2ccc(C(=O)Nc3nc4ccc(Br)cc4s3)cc2)CCC1(C)C`: the figures for the IC50 (in series [1]; in the series with U-251) were 100 µM and 75 µM, respectively. In addition, the logP in series [4] (read-out: logP) stood at 8.05.

With `CCC1=C(C)/C(=C/c2ccc(C(=O)Nc3ccc(OC(F)(F)F)cc3)cc2)CCC1(C)C`, the half-maximal inhibitory concentration (IC50) was determined as 20.7 µM in the series on U-251 and 47.5 µM with LN-229. For the same compound, the log partition coefficient (logP) in series [4] (read-out: logP) turned out to be 7.55.

As to `Cn1nnc2c(C(N)=O)ncn2c1=O` [TEMOZOLOMIDE], the IC50 was over 500 µM in series [1]; over 500 µM in series [2]; 25.4 µM in series [3]; over 500 µM with U-251; over 1000 µM in the series with LN-229. In series [4], this compound yielded a logP of -1.15.
